Measurements reported in BigSolDB 2.1.

CONC(=O)Nc1ccc(-c2sc3c(c2CN(C)C)c(=O)n(-c2ccc(OC)nn2)c(=O)n3Cc2c(F)cccc2F)cc1
solubility (mole fraction) (in acetonitrile, 298.15 K): 0.000483 | solubility (mole fraction) (in acetonitrile, 303.15 K): 0.000585 | solubility (mole fraction) (in acetonitrile, 308.15 K): 0.000667 | solubility (mole fraction) (in acetonitrile, 313.15 K): 0.000752 | solubility (mole fraction) (in acetonitrile, 318.15 K): 0.000856 | solubility (mole fraction) (in acetonitrile, 323.15 K): 0.000999 | solubility (mole fraction) (in ethanol, 298.15 K): 0.000134 | solubility (mole fraction) (in ethanol, 303.15 K): 0.000152 | solubility (mole fraction) (in ethanol, 308.15 K): 0.000171 | solubility (mole fraction) (in ethanol, 313.15 K): 0.000209 | solubility (mole fraction) (in ethanol, 318.15 K): 0.00025 | solubility (mole fraction) (in ethanol, 323.15 K): 0.000301 | solubility (mole fraction) (in ethyl acetate, 298.15 K): 0.000368 | solubility (mole fraction) (in ethyl acetate, 303.15 K): 0.0004 | solubility (mole fraction) (in ethyl acetate, 308.15 K): 0.00045 | solubility (mole fraction) (in ethyl acetate, 313.15 K): 0.000505 | solubility (mole fraction) (in ethyl acetate, 318.15 K): 0.000539 | solubility (mole fraction) (in ethyl acetate, 323.15 K): 0.000576 | solubility (mole fraction) (in isopropanol, 298.15 K): 6.6e-05 | solubility (mole fraction) (in isopropanol, 303.15 K): 8.3e-05 | solubility (mole fraction) (in isopropanol, 308.15 K): 0.000103 | solubility (mole fraction) (in isopropanol, 313.15 K): 0.000125 | solubility (mole fraction) (in isopropanol, 318.15 K): 0.000153 | solubility (mole fraction) (in isopropanol, 323.15 K): 0.000191 | solubility (mole fraction) (in methanol, 298.15 K): 0.000438 | solubility (mole fraction) (in methanol, 303.15 K): 0.00051 | solubility (mole fraction) (in methanol, 308.15 K): 0.000578 | solubility (mole fraction) (in methanol, 313.15 K): 0.000639 | solubility (mole fraction) (in methanol, 318.15 K): 0.000713 | solubility (mole fraction) (in methanol, 323.15 K): 0.000774
